A word on the IC50: it is the concentration at which inhibition is half-maximal.

Bounds are passed on as bounds.

Data set [1] addresses recombinant human cathepsin E (Homo sapiens (Human), UniProt P14091). The data set is described as follows: Cathepsin E fluorescent substrate kinetic assay (MR121). To be noted: pH 4.5, substrate MR121-CKLVFFAEDW
The class given is biochemical. An excerpt: (§1) Cathepsin D and Cathepsin E Fluorescent Substrate Kinetic Assays General Assay Principle
(§2) The MR121 fluorescence assays described below are based on the fact that MR121 forms a non-fluorescent ground state complex with tryptophan. In solution this formation occurs at millimolar concentrations of tryptophan. The mechanism can be used to design a generic biochemical assay for proteases. A substrate peptide is labeled at the N-terminus with tryptophan and at the C-terminus with the fluorophore MR121 (for cathepsin D the 10 amino acid peptide WTSVLMAAPC-MR121 was used; for cathepsin E, MR121-CKLVFFAEDW was used). In absence of protease activity, the substrates remain intact and the MR121 fluorescence is reduced by the high local Trp-concentration. If the substrates are cleaved by the enzymes the MR121 fluorescence is recovered.
(§3) The fluorescent substrate cathepsin D and cathepsin E kinetic assays were performed at room temperature in 384-well microtiter plates (black with clear flat bottom, non binding surface plates from Corning) in a final volume of 51 μl. […] The enzymatic reaction was followed in a plate: vision reader (Perkin Elmer) (excitation wavelength: 630 nm; emission: 695 nm) for at least 30 minutes in a kinetic measurement detecting an increase of MR121 fluorescence during the reaction time. […]

Data set [2] concerns the target cathepsin D (from human liver) (Homo sapiens (Human), UniProt P07339). The data set is described as follows: Cathepsin D fluorescent substrate kinetic assay (MR121). The class given is biochemical. Conditions: pH 5.5, substrate WTSVLMAAPC-MR121.
Source text: as §1, §2, §3

The target of data set [3] is BACE1 (Homo sapiens (Human), UniProt P56817). The data set is described as follows: Cellular Aβ-lowering assay (Aβ40 ELISA, HEK293 cells expressing human APP695). The format is cell-based. Conditions: HEK293 cells stably transfected with human APP695; 18-20 hrs incubation; Aβ40 in supernatant; read-out: BACE1 cell act. Aβ40 IC50. The method, then: Cellular Aβ-Lowering Assay:
Human HEK293 cells which are stably transfected with a vector expressing a cDNA of the human APP wt gene (APP695) were used to assess the potency of the compounds in a cellular assay. The cells were seeded in 96-well microtiter plates in cell culture medium (Iscove, plus 10% (v/v) fetal bovine serum, glutamine, penicillin/streptomycin) to about 80% confluence and the compounds were added at a 10× concentration in 1/10 volume of medium without FCS containing 8% DMSO (final concentration of DMSO was kept at 0.8% v/v). After 18-20 hrs incubation at 37° C. and 5% CO2 in a humidified incubator the culture supernatant was harvested for the determination of […] concentrations. 96well ELISA plates (e.g., Nunc MaxiSorb) were coated with monoclonal antibody which specifically recognize the C-terminal end of […] (Brockhaus et al., NeuroReport 9, 1481-1486; 1998). After blocking of non-specific binding sites with e.g. 1% BSA and washing, the culture supernatants were added in suitable dilutions together with a horseradish peroxidase-coupled Aβ detection antibody (e.g., antibody 4G8, Senetek, Maryland Heights, Mo.) and incubated for 5 to 7 hrs. Subsequently the wells of the microtiter plate were washed extensively with Tris-buffered saline containing 0.05% Tween 20 and the assay was developed with tetramethylbenzidine/H2O2 in citric acid buffer. After stopping the reaction with one volume 1 N H2SO4 the reaction was measured in an ELISA reader at 450 nm wavelength. The concentrations of Aβ in the culture supernatants were calculated from a standard curve obtained with known amounts of pure Aβ peptide.

Data set [4] deals with CYP2D6 (Homo sapiens (Human), UniProt P10635). The data set is described as follows: CYP inhibition assay, human liver microsomes, dextromethorphan O-demethylase. The format is in vitro ADME. To be noted: pooled human liver microsomes, dextromethorphan substrate; read-out: CYP IC50 2D6. How it is done: (§4) Inhibition of cytochromes P450 (CYPs) 2C9, 2D6 and 3A4 was assessed using human liver microsomes and CYP-selective substrate metabolism reactions. 50 μl incubations were made up containing (finally) 0.2 mg/ml pooled human liver microsomes, 5 μM substrate (diclofenac for CYP2C9 [4′ hydroxylase], dextromethorphan for CYP2D6 [O-demethylase] or midazolam for CYP3A4 [1′ hydroxylase]), 0.25 μl, DMSO containing test inhibitor and NADPH regenerating system. Test inhibitor concentrations of 50, 16.7, 5.6, 1.9, 0.6 and 0.2 μM were assessed in singlicate. Incubations were prewarmed to 37° C. for 10 minutes before initiation by addition of NADPH regenerating system. Incubations were quenched after 5 minutes (20 minutes for dextromethorphan) by addition of 50 μl cold acetonitrile containing 20 ng/ml 4-OH-diclofenac-13C6, 20 ng/mL dextrorphan-D3 and 20 ng/mL 1-OH-midazolam-D4. Quenched incubates were stored at −20° C. for at least 1 hour before centrifugation (20,000×g, 20 minutes). Supernatants were removed and diluted 1:1 with water prior to analysis using a RapidFire sample injector system and API4000 mass spectrometer. Peak areas for substrate, metabolite and stable-labelled metabolite standard were determined using MS/MS. […] The percentage of (DMSO) control activity was calculated for each incubate and IC50 values estimated by non-linear regression. […]
Chain of CYP2D6 (P10635 whole entry): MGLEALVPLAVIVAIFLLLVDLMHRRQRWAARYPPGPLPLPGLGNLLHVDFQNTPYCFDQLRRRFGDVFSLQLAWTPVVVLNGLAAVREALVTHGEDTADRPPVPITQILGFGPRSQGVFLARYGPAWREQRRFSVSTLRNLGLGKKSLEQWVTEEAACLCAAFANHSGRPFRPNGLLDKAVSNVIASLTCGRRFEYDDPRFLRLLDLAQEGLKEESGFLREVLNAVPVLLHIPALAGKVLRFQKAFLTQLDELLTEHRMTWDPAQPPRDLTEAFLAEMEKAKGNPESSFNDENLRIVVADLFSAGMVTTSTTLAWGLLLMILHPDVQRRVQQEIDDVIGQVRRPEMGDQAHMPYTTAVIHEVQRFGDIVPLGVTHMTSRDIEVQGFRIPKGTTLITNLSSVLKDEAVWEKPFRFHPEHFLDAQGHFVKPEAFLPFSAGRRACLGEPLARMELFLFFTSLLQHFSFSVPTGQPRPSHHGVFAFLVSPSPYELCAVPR
Background: Liver microsomes are a subcellular fraction often used to study metabolism.

Data set [5] concerns the target CYP2C9 (Homo sapiens (Human), UniProt P11712). The data set is described as follows: CYP inhibition assay, human liver microsomes, diclofenac 4' hydroxylase. The class given is in vitro ADME. Conditions: pooled human liver microsomes, diclofenac substrate; read-out: CYP IC50 2C9. The method, then: as §4
The target of data set [6] is BACE2 (Rattus norvegicus (Rat), UniProt Q6IE75). The data set is described as follows: Assay for BACE inhibition by measuring cellular TMEM27 cleavage (INS-TMEM27 cells, ELISA). Conditions: INS-TMEM27 (INS1e-derived) cells; shed TMEM27 in supernatant; read-out: BACE2 cell act. IC50. The format is cell-based. The source says: Assay for BACE Inhibition by Measuring Cellular TMEM27 Cleavage:
The assay uses the principle of inhibition of human TMEM27 cleavage by endogenous cellular BACE2 in the Ins1e rat cell line and shedding from the cell surface into the culture medium, followed by detection in an ELISA assay. Inhibition of BACE2 prevents the cleavage and shedding in a dose-dependent manner
The stable cell line “INS-TMEM27” represents an INS1e-derived cell line with inducible expression (using the TetOn system) of full-length hTMEM27 in a doxycycline-dependent manner. The cells are cultured throughout the experiment in RPMI1640 +Glutamax (Invitrogen) Penicillin/Streptomycin, 10% Fetal bovine serum, […], […], 100 micrograms/ml G418 and 100 microgram/ml hygromycin and are grown inadherent culture at 37° C. in a standard CO2 cell culture incubator.
INS-TMEM27 cells are seeded in 96-well plates. After 2 days in culture, BACE2 inhibitor is added in a range of concentrations as required by the assay and after a further two hours, doxycycline is added to a final concentration of 500 ng/ml. The cells are incubated for a further 46 hours and the supernatant harvested for detection of shed TMEM27.
An ELISA assay (using a pair of mouse anti-human-TMEM27 antibodies, raised against the extracellular domain of TMEM27) is used for detection of TMEM27 in the culture medium. An EC50 for BACE2 inhibition is calculated using the ELISA readout for each inhibitor concentration with standard curve-fitting software such as XLFit for the Excel spreadsheet program.
Background: ELISA stands for enzyme-linked immunosorbent assay.

Data set [7] has as its target CYP3A4 (Homo sapiens (Human), UniProt P08684). The data set is described as follows: CYP inhibition assay, human liver microsomes, midazolam 1' hydroxylase. Conditions: pooled human liver microsomes, midazolam substrate; read-out: CYP IC50 3A4. The format is in vitro ADME. The method, then:
as §4

Chain of BACE2 (Q6IE75 63-514): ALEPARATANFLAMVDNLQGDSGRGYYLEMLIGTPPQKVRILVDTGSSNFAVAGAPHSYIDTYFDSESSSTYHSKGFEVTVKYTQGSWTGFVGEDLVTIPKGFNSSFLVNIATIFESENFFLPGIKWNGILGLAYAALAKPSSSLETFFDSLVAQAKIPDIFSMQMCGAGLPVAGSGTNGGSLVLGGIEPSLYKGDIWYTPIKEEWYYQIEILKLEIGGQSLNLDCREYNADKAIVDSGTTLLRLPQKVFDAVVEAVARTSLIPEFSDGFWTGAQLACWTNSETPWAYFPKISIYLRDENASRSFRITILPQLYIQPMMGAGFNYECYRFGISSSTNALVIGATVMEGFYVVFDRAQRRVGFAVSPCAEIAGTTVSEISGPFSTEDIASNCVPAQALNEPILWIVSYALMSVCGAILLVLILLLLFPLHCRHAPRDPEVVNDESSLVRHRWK
Chain of BACE1 (P56817 46-501): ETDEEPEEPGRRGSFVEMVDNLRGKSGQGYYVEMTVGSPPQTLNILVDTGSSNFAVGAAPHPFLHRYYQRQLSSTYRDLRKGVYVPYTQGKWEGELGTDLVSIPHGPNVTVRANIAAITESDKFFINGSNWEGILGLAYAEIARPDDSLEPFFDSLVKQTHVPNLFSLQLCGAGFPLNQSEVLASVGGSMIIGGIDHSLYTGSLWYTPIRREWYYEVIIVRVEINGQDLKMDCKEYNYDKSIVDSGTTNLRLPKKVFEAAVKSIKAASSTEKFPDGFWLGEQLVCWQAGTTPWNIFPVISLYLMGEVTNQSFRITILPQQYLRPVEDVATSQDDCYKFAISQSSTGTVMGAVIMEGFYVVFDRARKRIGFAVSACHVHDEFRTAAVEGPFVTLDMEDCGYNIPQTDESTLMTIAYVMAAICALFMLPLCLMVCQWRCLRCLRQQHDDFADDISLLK
Chain of recombinant human cathepsin E (P14091 54-396): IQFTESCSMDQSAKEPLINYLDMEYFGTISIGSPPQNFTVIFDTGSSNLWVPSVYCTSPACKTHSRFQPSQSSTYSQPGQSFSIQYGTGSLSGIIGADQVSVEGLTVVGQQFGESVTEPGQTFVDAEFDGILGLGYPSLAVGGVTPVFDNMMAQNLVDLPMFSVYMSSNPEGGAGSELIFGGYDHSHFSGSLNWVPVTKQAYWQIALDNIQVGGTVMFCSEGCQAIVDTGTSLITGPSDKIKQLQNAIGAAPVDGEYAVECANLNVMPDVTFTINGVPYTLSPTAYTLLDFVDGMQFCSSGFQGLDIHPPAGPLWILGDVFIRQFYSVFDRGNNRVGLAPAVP
Chain of CYP3A4 (P08684 whole entry): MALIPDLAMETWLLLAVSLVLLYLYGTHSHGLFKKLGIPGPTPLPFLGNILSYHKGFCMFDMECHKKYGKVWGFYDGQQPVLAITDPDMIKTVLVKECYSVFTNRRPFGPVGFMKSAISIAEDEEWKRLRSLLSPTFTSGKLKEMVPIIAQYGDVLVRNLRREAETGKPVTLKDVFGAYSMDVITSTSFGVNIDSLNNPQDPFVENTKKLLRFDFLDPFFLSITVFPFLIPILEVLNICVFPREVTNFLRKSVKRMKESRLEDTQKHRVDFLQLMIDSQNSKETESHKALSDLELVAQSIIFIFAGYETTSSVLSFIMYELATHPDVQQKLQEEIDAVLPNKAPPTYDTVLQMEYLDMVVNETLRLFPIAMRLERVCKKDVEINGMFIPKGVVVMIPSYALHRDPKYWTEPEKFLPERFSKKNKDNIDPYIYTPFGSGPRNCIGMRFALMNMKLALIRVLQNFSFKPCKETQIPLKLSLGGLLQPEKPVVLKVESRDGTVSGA
Chain of CYP2C9 (P11712 whole entry): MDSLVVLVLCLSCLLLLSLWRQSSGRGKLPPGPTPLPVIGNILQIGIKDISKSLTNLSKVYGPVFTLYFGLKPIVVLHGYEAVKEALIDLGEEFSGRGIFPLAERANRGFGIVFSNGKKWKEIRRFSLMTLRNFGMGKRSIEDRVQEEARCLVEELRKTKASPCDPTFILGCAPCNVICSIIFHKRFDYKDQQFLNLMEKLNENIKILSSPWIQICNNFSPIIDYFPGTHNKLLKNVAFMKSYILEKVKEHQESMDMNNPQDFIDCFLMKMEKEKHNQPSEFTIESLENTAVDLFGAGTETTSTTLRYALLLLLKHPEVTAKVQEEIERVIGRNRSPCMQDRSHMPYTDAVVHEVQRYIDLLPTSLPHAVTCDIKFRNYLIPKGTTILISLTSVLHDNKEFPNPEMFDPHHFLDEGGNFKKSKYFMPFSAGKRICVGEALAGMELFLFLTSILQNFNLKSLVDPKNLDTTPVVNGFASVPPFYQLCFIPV
Chain of cathepsin D (from human liver) (P07339 169-412): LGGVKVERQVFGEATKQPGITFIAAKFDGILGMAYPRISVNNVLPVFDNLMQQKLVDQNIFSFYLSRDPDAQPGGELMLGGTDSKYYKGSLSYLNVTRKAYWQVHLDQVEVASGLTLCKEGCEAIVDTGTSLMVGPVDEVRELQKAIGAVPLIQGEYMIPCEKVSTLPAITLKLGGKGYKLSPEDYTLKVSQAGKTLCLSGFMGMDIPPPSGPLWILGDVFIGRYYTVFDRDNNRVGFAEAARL
Chain of cathepsin D (from human liver) (P07339 65-162): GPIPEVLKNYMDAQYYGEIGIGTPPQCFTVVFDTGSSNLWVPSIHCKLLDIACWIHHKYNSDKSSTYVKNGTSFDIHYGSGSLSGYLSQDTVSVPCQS

With `CC1(c2cccc(Nc3cc(F)cc4cc(Cl)cnc34)c2)COCC(N)=N1` (centres unmarked) [Example 36, [3-(5-Amino-3-methyl-3,6-dihydro-2H-[1,4]oxazin-3-yl)-phenyl]-(3-chloro-6-fluoro-quinolin-8-yl)-amine], the figures for the IC50 in data set [1], in data set [2] and in data set [3] were 5000 nM, 2600 nM and 250 nM, respectively.

In the case of `C[C@@]1(c2cc(Nc3cc(Cl)cc4cc(Cl)cnc34)ccc2F)COCC(N)=N1` [Example 27, [3-((R)-5-Amino-3-methyl-3,6-dihydro-2H-[1,4]oxazin-3-yl)-4-fluoro-phenyl]-(3,6-dichloro-quinolin-8-yl)-amine], the concentration for half-maximal inhibition (IC50) in data set [4] is 4500 nM; in data set [5] it was greater than 50000 nM; in data set [6] it was 558 nM; in data set [7], 33000 nM; in data set [3] it was 660 nM.

For `Cn1nc(Nc2ccc(F)c([C@@]3(C)COCC(N)=N3)c2)c2ccc(Cl)cc21` [Example 34, (S)-5-(5-(6-chloro-1-methyl-1H-indazol-3-ylamino)-2-fluorophenyl)-5-methyl-5,6-dihydro-2H-1,4-oxazin-3-amine], the IC50 in data set [4] was 2000 nM; in data set [5], 6700 nM; in data set [6] it was 1480 nM; in data set [7], 25000 nM; in data set [3] it was 1040 nM.

In the case of `C[C@@]1(c2cc(NC[C@H]3CCCO3)ccc2F)COCC(N)=N1` [Example 22, (R)-5-(2-fluoro-5-(((R)-tetrahydrofuran-2-yl)methylamino)phenyl)-5-methyl-5,6-dihydro-2H-1,4-oxazin-3-amine], the half-inhibitory concentration (IC50) in data set [6] amounted to 2430 nM; in data set [3], 1110 nM.

On to `C[C@@]1(c2cc(Nc3cccc4cc(OC(F)F)cnc34)ccc2F)COCC(N)=N1` [Example 29, [3-((R)-5-Amino-3-methyl-3,6-dihydro-2H-[1,4]oxazin-3-yl)-4-fluoro-phenyl]-(3-difluoromethoxy-quinolin-8-yl)-amine], for which the IC50 came out at 2300 nM in data set [6], 17600 nM in data set [1], 21100 nM in data set [2] and 270 nM in data set [3].

Turning to `C[C@@]1(c2cc(Nc3ccccc3OCC(F)F)ccc2F)COCC(N)=N1` [Example 41, (R)-5-{5-[2-(2,2-Difluoro-ethoxy)-phenylamino]-2-fluoro-phenyl}-5-methyl-5,6-dihydro-2H-[1,4]oxazin-3-ylamine], the results for the IC50 in data set [6] and in data set [3] were 10 nM and 2140 nM, respectively.

Regarding `C[C@@]1(c2cc(N[C@H]3CCC[C@@H]3O)ccc2F)COCC(N)=N1` [Example 19, (1S,2S)-2-(3-((R)-5-amino-3-methyl-3,6-dihydro-2H-1,4-oxazin-3-yl)-4-fluorophenylamino)cyclopentanol], the figures for the IC50 in data set [6] and in data set [3] were 3420 nM and 1210 nM, respectively.

For `C[C@@]1(c2cc(N[C@H]3CCC[C@H]3O)ccc2F)COCC(N)=N1` [Example 20, (1R,2S)-2-(3-((R)-5-amino-3-methyl-3,6-dihydro-2H-1,4-oxazin-3-yl)-4-fluorophenylamino)cyclopentanol], the IC50 in data set [6] stood at 2270 nM; in data set [3] it was 610 nM.

On to `C[C@@]1(c2cc(Nc3ccon3)ccc2F)COCC(N)=N1` [Example 33, (R)-5-[2-Fluoro-5-(isoxazol-3-ylamino)-phenyl]-5-methyl-5,6-dihydro-2H-[1,4]oxazin-3-ylamine], for which the IC50 in data set [6] is 1210 nM; in data set [3] it was 580 nM.

As to `C[C@@]1(c2cc(NCCC(F)(F)F)ccc2F)COCC(N)=N1` [Example 12, (R)-5-(2-fluoro-5-(3,3,3-trifluoropropylamino)phenyl)-5-methyl-5,6-dihydro-2H-1,4-oxazin-3-amine], the half-maximal inhibitory concentration (IC50) in data set [6] worked out at 2900 nM; in data set [3], 1090 nM.

Source of the values: patent US9242943B2, “1,4 oxazines as BACE1 and/or BACE2 inhibitors” (SIENA BIOTECH S.P.A., priority 2011, dated 2016).
